Assay results taken from US20120196887A1, “METHODS AND COMPOSITIONS FOR IMPROVED RIFAMYCIN THERAPIES” (priority 2011, published 2012).
In brackets after ≈: the same amount, converted by molar mass. Several values for one entry are separate records, joined by “and”; a condition that tells them apart may be missing. Identical values can stand only once. Like-named read-outs stand apart in the source and are kept apart here.

Experiments:
[1] = test system: Enterotoxigenic Escherichia coli (ETEC) strain H10407; assay: Growth of ETEC strain H10407 with rifaximin in the presence and absence of bile acids (OD600 / cell density); format: cell-based
[2] = test system: Enterotoxigenic Escherichia coli (ETEC) strain H10407; assay: as above; format: cell-based; remark: listed apart in the source
Protocol: Enterotoxigenic Escherichia coli (ETEC) strain H10407 was used as a model bacteria in all the susceptibility experiments.
Equimolar concentrations (0.67 mM) of each of these bile acids were pooled (4 mM total bile acids) for the experiments. In order to determine the Total Human Bile Concentration, a sample of human bile taken after cholecystectomy was kindly provided by Dr. David Graham (Department of Medicine, Veterans Affairs Medical Center and the Division of Molecular Virology, Baylor College of Medicine, Houston, Tex., and Director of Study Design and Clinical Research Core, Texas Medical Center Digestive Disease. Center). The total bile acids concentration was determined using the Diazyme Total Bile Acids assay (Diazyme Laboratories, CA) following the protocol provided by the manufacturer.
In each experiment, an overnight culture of E. coli H10407 was added to the LB media to OD600 of 0.04 (approximately 4×10^7 cells/mL) and incubated for 4-6 hours at 37° C. in a shaker at 200 rpm. Optical density measurements (OD600) were determined every 30 minutes. The experiment was replicated four times and average OD used for the analysis. […]

[3] = test system: Shigella flexneri (serotype 2B); assay: Minimal inhibitory concentration (MIC), Shigella flexneri; format: cell-based
[4] = test system: Enteroaggregative E. coli; assay: Growth (OD600) and total protein of Enteroaggregative E. coli with rifaximin and bile acids; format: cell-based; settings: 16 μg/mL rifaximin + 4 mM total bile acids
Protocol: A second culture of Enteroaggregative E. coli bacteria in LB media to which was added 4 mM of bile acids (comprising an equimolar mixture of each of the bile acids: cholic, deoxycholic, chenodeoxycholic, glycocholic, lithocholic, and taurocholic acids at pH 7.4).

[5] = test system: Salmonella enterica (ATCC #14028); assay: Minimal inhibitory concentration (MIC), Salmonella enterica; format: cell-based; settings: ATCC14028
[6] = test system: Enteroaggregative E. coli; assay: Minimal inhibitory concentration (MIC), Enteroaggregative E. coli; format: cell-based; settings: Escherichia coli; Enteroaggregative strain of E. coli used
[7] = test system: Enterotoxigenic Escherichia coli (ETEC) strain H10407; settings: cited from earlier work
coliform flora = settings: cited from earlier work
[8] = test system: Shigella flexneri (serotype 2B); assay: Growth (OD600) and total protein of Shigella flexneri with rifaximin and bile acids; format: cell-based; settings: 32 μg/mL rifaximin + 4 mM total bile acids
Protocol: A second culture of Shigella flexneri (serotype 2B) bacteria in LB media to which was added 4 mM of bile acids (comprising an equimolar mixture of each of the bile acids: cholic, deoxycholic, chenodeoxycholic, glycocholic, lithocholic, and taurocholic acids at pH 7.4).

[9] = test system: Salmonella enterica (ATCC #14028); assay: Growth (OD600) and total protein of Salmonella enterica with rifaximin and bile acids; format: cell-based; settings: 32 μg/mL rifaximin + 4 mM total bile acids
Protocol: A second culture of Salmonella enterica bacteria in LB media to which was added 4 mM of bile acids (comprising an equimolar mixture of each of the bile acids: cholic, deoxycholic, chenodeoxycholic, glycocholic, lithocholic, and taurocholic acids at pH 7.4).

E. coli H10407 = assay: Total protein content of bacteria treated with rifaximin and bile acids (Bradford assay); format: cell-based, Escherichia coli; settings: 16 μg/mL rifaximin + bile acids vs rifaximin without bile acids; 4 hours incubation
Protocol: Aliquots (1 mL) of the culture in each tube were taken every hour for total protein determination. In order to lyse the cells and release the protein, 300 μL of permeabilization solution (2.4 mg/mL hexadecyl trimethylammonium bromide, 1.2 mg/mL sodium deoxycholate, 600 mM dibasic sodium phosphate, 60 mM potassium chloride, 6 mM magnesium sulfate, and 16 μL/mL beta-mercaptoethanol) was added. The tubes were incubated for one hour at room temperature and then centrifuged at 15000×g for 20 minutes. The protein concentration was determined in triplicate using the Bradford assay (Bradford, M. M., A rapid and sensitive method for the quantitation of microgram quantities of protein utilizing the principle of protein-dye binding. Anal Biochem. 72:248-54, 1976) using bovine serum albumin (BSA) as the standard. Each experiment was repeated three times with the average and standard deviation reported.

Clostridium difficile = settings: cited from earlier work
[10] = test system: beta-galactosidase expressed by E. coli H10407; assay: Beta-galactosidase assay (IPTG-induced expression, Miller Units); format: cell-based, Escherichia coli; settings: rifaximin added to the culture medium (8, 16, 32 μg/mL), no bile acids
Protocol: Beta-Galactosidase Assay: Beta-galactosidase is an essential enzyme required by E. coli to metabolize lactose during conditions when available glucose levels are low, but lactose levels are high. When expression of beta-galactosidase is inhibited in a media containing limiting amounts of glucose but high amounts of lactose, once the glucose in the media is exhausted bacterial death occurs. […] To, 1.5 mL microfuge tubes, 50 μL of the induced culture was added to 200 μL of permeabilization solution (0.8 mg/mL hexadecyl trimethylammonium bromide (CTAB), 0.4 mg/mL sodium deoxycholate, 200 mM dibasic sodium phosphate (Na2HPO4), 20 mM potassium chloride (KCl), 2 mM magnesium sulfate (MgSO4), and 5.4 μL/mL beta-mercaptoethanol. After 30 minutes incubation at 30° C., 600 μL of substrate solution (60 mM Na2HPO4, 40 mM NaH2PO4, 10 mM KCl, 20 μg/mL CTAB, 1 mg/mL O-nitrophenyl-β-D-galactoside (ONPG), and 2.7 μL/mL β-mercaptoethanol) was added and the time of addition was recorded. The incubation was allowed to continue at 30° C. for 40 minutes, after which 350 μL of 2 M sodium carbonate (Na2CO3) was added to stop the reaction. The assay, tubes were centrifuged at 15000×g for 15 minutes and absorbance measurements at 420 nm were made in triplicate using the supernatants.
The concentration of β-galactosidase in Miller Units was calculated as: […]

[11] = bile acid alone, no rifaximin, after 4 hours of incubation
[12] = 4 mM bile acid + 16 μg/mL rifaximin vs 16 μg/mL rifaximin alone, 4 hours
[13] = bile acid 4 mM combined with 16 μg/mL rifaximin, after 4 hours of incubation

With `C[C@H](CCC(=O)O)[C@H]1CC[C@H]2[C@@H]3[C@H](O)C[C@@H]4C[C@H](O)CC[C@]4(C)[C@H]3CC[C@]12C` [Chenodeoxycholic acid] the “Cell density, 4 mM BILE ACIDS” value [1, 11] was 7.0 ± 0.06 ×10^8 bacteria/milliliter of c, the “PERCENT DECREASE IN CELL DENSITY ON ADDITION OF BILE ACIDS TO RIFAXIMIN” value [2, 12] was 89.2 ± 0.49% and the “PERCENT DECREASE IN CELL DENSITY ON ADDITION OF BILE ACIDS TO RIFAXIMIN” value ([2]; 4 mM bile acid + 16 μg/mL rifaximin vs 16 μg/mL rifaximin alone, 4 hours, listed as chenodeoxycholic acid) was 89.2%. The “Cell density, 4 mM BILE ACIDS + 16 μg/mL RIFAXIMIN” value [2, 13] was 0.53 ± 0.51 ×10^8 bacteria/milliliter of c.
With `C[C@H](CCC(=O)O)[C@H]1CC[C@H]2[C@@H]3[C@H](O)C[C@@H]4C[C@H](O)CC[C@]4(C)[C@H]3C[C@H](O)[C@]12C` [Cholic acid] the “Cell density, 4 mM BILE ACIDS” value [1, 11] was 11 ± 0.46 ×10^8 bacteria/milliliter of c, the “PERCENT DECREASE IN CELL DENSITY ON ADDITION OF BILE ACIDS TO RIFAXIMIN” value [2, 12] was 95.5 ± 0.80% and the “PERCENT DECREASE IN CELL DENSITY ON ADDITION OF BILE ACIDS TO RIFAXIMIN” value ([2]; 4 mM bile acid + 16 μg/mL rifaximin vs 16 μg/mL rifaximin alone, 4 hours, listed as cholic acid) was 95.5%. For the same compound, the “Cell density, 4 mM BILE ACIDS + 16 μg/mL RIFAXIMIN” value [2, 13] was 0.22 ± 0.20 ×10^8 bacteria/milliliter of c.
With `C[C@H](CCC(=O)O)[C@H]1CC[C@H]2[C@@H]3CC[C@@H]4C[C@H](O)CC[C@]4(C)[C@H]3C[C@H](O)[C@]12C` [Deoxycholic acid] the “Cell density, 4 mM BILE ACIDS” value [1, 11] was 3.9 ± 0.34 ×10^8 bacteria/milliliter of c, the “PERCENT DECREASE IN CELL DENSITY ON ADDITION OF BILE ACIDS TO RIFAXIMIN” value [2, 12] was 93.8 ± 0.51% and the “PERCENT DECREASE IN CELL DENSITY ON ADDITION OF BILE ACIDS TO RIFAXIMIN” value ([2]; 4 mM bile acid + 16 μg/mL rifaximin vs 16 μg/mL rifaximin alone, 4 hours, listed as deoxycholic acid) was 93.8%. For the same compound, the “Cell density, 4 mM BILE ACIDS + 16 μg/mL RIFAXIMIN” value [2, 13] was 0.30 ± 0.49 ×10^8 bacteria/milliliter of c.
With `C[C@H](CCC(=O)NCC(=O)O)[C@H]1CC[C@H]2[C@@H]3[C@H](O)C[C@@H]4C[C@H](O)CC[C@]4(C)[C@H]3C[C@H](O)[C@]12C` [Glycocholic acid] the “Cell density, 4 mM BILE ACIDS” value [1, 11] was 14 ± 0.32 ×10^8 bacteria/milliliter of c, the “PERCENT DECREASE IN CELL DENSITY ON ADDITION OF BILE ACIDS TO RIFAXIMIN” value [2, 12] was 80.8 ± 0.40% and the “PERCENT DECREASE IN CELL DENSITY ON ADDITION OF BILE ACIDS TO RIFAXIMIN” value ([2]; 4 mM bile acid + 16 μg/mL rifaximin vs 16 μg/mL rifaximin alone, 4 hours, listed as glycocholic acid) was 80.8%. The “Cell density, 4 mM BILE ACIDS + 16 μg/mL RIFAXIMIN” value [2, 13] was 0.94 ± 0.60 ×10^8 bacteria/milliliter of c.
For `C[C@H](CCC(=O)O)[C@H]1CC[C@H]2[C@@H]3CC[C@@H]4C[C@H](O)CC[C@]4(C)[C@H]3CC[C@]12C` [Lithocholic acid], the “Cell density, 4 mM BILE ACIDS” value [1, 11] was 6.6 ± 0.25 ×10^8 bacteria/milliliter of c, the “PERCENT DECREASE IN CELL DENSITY ON ADDITION OF BILE ACIDS TO RIFAXIMIN” value [2, 12] was 43.9 ± 0.73% and the “PERCENT DECREASE IN CELL DENSITY ON ADDITION OF BILE ACIDS TO RIFAXIMIN” value ([2]; 4 mM bile acid + 16 μg/mL rifaximin vs 16 μg/mL rifaximin alone, 4 hours, listed as lithocholic acid) was 43.9%. The “Cell density, 4 mM BILE ACIDS + 16 μg/mL RIFAXIMIN” value [2, 13] was 2.8 ± 0.27 ×10^8 bacteria/milliliter of c.
In the case of `C[C@H](CCC(=O)NCCS(=O)(=O)O)[C@H]1CC[C@H]2[C@@H]3[C@H](O)C[C@@H]4C[C@H](O)CC[C@]4(C)[C@H]3C[C@H](O)[C@]12C` [Taurocholic acid], the “Cell density, 4 mM BILE ACIDS” value [1] is reported as 14 ± 0.51, the “Cell density, 4 mM BILE ACIDS + 16 μg/mL RIFAXIMIN” value [2] is reported as 1.1 ± 0.23 and the “PERCENT DECREASE IN CELL DENSITY ON ADDITION OF BILE ACIDS TO RIFAXIMIN” value [2] is reported as 77.6% and 77.6 ± 0.77%.
In the case of `CO[C@H]1/C=C/O[C@@]2(C)Oc3c(C)c(O)c4c(O)c(c5c(nc6cc(C)ccn65)c4c3C2=O)NC(=O)/C(C)=C\C=C\[C@H](C)[C@H](O)[C@@H](C)[C@@H](O)[C@@H](C)[C@H](OC(C)=O)[C@@H]1C` [rifaximin, Rifaximin], the MIC [3] is reported as 64 µg/mL (≈ 81.4 µM), the “effect of adding bile acids to rifaximin on growth and protein synthesis” value (from here on “effect of adding bile acids to rifaximin”) [4] is reported as “increases its ability to inhibit the growth and protein synthesis” and the MIC [5] is reported as 64 µg/mL (≈ 81.4 µM). The MIC [6] was 32 µg/mL (≈ 40.7 µM), the “in vitro minimal inhibitory concentration (MIC)” value [7] was 32 to 128 µg/mL and the “average MICs of most coliform flora” value (coliform flora) was “about 32 μg/mL”. The “effect of adding bile acids to rifaximin” value [8] was “increases its ability to inhibit the growth and protein synthesis”, the “effect of adding bile acids to rifaximin” value [9] was “increases its ability to inhibit the growth and protein synthesis” and the “percent decrease in total bacterial protein expression when bile acids added” value (E. coli H10407) was 59%. The MIC (Clostridium difficile) was 0.025 µg/mL (≈ 0.0318 µM), the “inhibition of bacterial growth by rifaximin alone” value ([2]; 16 μg/mL rifaximin, absence of bile acids) was “statistically significant (p=0.026, n=4) inhibition of bacterial growth” and the “increase of anti-ETEC activity on addition of bile acids / human bile to rifaximin” value ([2]; after 4 hours) was “greater than 70%”. For the same compound, the “Cell density, 16 μg/mL RIFAXIMIN” value ([2]; rifaximin alone, no bile acids, after 4 hours of incubation, control of the bile acid named in the row) was 6.6 ± 0.50 ×10^8 bacteria/milliliter of c and 4.9 ± 1.0 ×10^8 bacteria/milliliter of c and the “amount of beta-galactosidase produced vs control” value [10] was “decreased in a dose-dependent fashion below the control values”.
